From patent publication US6921770B2 (priority 2000, dated 2005)

Test system: rice blast fungi
Format: in vivo, Pyricularia grisea

Compound | Inhibiting Ratio (%) (at 250 ppm)
2-(2,4-dichloromethylphenylimino)-3-methyl-4-[N-(3-chlorophenyl)carbamoylmethyl]-1,3-thiazol-4-ine hydrobromide [Compound 60] | 100
Cl.Cn1c(CC(=O)Nc2ccc([N+](=O)[O-])cc2)csc1=Nc1ccc(OC(F)(F)F)cc1 [Compound 176, 2-(4-trifluoromethoxyphenylimino)-3-methyl-4-[N-(4-nitrophenyl)carbamoylmethyl]-4-thiazoline hydrochloride] | 96
Br.Cc1ccc(N=c2scc(CC(=O)Nc3cccc(Cl)c3)n2C)cc1Cl [Compound 62, 2-(3-chloro-4-methylphenylimino)-3-methyl-4-[N-(3-chlorophenyl)carbamoylmethyl]-1,3-thiazol-4-ine hydrobromide] | 100
Cc1ccc(N=c2scc(CC(=O)Nc3ccc(Br)cc3)n2C2CC2)c(C)c1.Cl [Compound 263, 2-(2,4-dimethylphenylimino)-3-cyclopropyl-4-[N-(4-bromophenyl)carbamoylmethyl]-1,3-thiazol-4-ine hydrochloride] | 96
Br.COc1ccc(NC(=O)Cc2csc(=Nc3cccc(C)c3)n2C)cc1 [Compound 328, 2-(3-methylphenylimino)-3-methyl-4-[N-(4-methoxyphenyl)carbamoylmethyl]-1,3-thiazol-4-ine hydrobromide] | 97
Br.Cc1ccc(NC(=O)Cc2csc(=Nc3ccc(OC(F)(F)F)cc3)n2C)cc1 [Compound 47, 2-(4-trifluoromethoxyphenylimino)-3-methyl-4-[N-(4-methylphenyl)carbamoylmethyl]-1,3-thiazol-4-ine hydrobromide] | 100
2-(2,4-difluorophenylimino)-3-methyl-4-[N-(methoxyphenyl)carbamoylmethyl]-1,3-thiazol-4-ine [Compound 340] | 94
Cc1cc(Br)ccc1N=c1scc(CC(=O)Nc2ccc(Br)cc2)n1C.Cl [Compound 142, 2-(4-bromo-2-methylphenylimino)-3-methyl-4-[N-(4-bromophenyl)carbamoylmethyl]-1,3-thiazol-4-ine hydrochloride] | 98
Br.Cc1ccc(NC(=O)Cc2csc(=Nc3ccc(F)c(Cl)c3)n2C)cc1 [Compound 51, 2-(3-chloro-4-fluorophenylimino)-3-methyl-4-[N-(4-methylphenyl)carbamoylmethyl]-1,3-thiazol-4-ine hydrobromide] | 99
CC(C)Oc1cc(N=c2scc(CC(=O)Nc3ccccc3F)n2C)c(F)cc1Cl.Cl [Compound 151, 2-(4-chloro-2-fluoro-5-isopropoxyphenylimino)-3-methyl-4-[N-(2-fluorophenyl)carbamoylmethyl]-1,3-thiazol-4-ine hydrochloride] | 96
Cl.O=C(Cc1csc(=Nc2ccc(F)cc2F)n1C1CC1)Nc1ccc(Br)cc1 [Compound 258, 2-(2,4-difluorophenylimino)-3-cyclopropyl-4-[N-(4-bromophenyl)carbamoylmethyl]-1,3-thiazol-4-ine hydrochloride] | 91
Br.Cc1ccc(NC(=O)Cc2csc(=Nc3ccc(C#N)cc3)n2C)cc1 [Compound 46] | 100
Cl.Cn1c(CC(=O)Nc2ccc(Br)cc2)csc1=Nc1ccc(F)cc1 [Compound 136, 2-(4-fluorophenylimino)-3-methyl-4-[N-(4-bromophenyl)carbamoylmethyl]-1,3-thiazol-4-ine hydrochloride] | 97
Cc1ccc(NC(=O)Cc2csc(=Nc3ccc(Br)cc3)n2C)cc1.Cl [Compound 162, 2-(4-bromophenylimino)-3-methyl-4-[N-(4-methylphenyl)carbamoylmethyl]-1,3-thiazol-4-ine hydrochloride] | 89
CCCCc1ccc(N=c2scc(CC(=O)Nc3ccc(Br)cc3)n2C)cc1.Cl [Compound 147, 2-[4-(n-butyl)phenylimino]-3-methyl-4-[N-(4-bromophenyl)carbamoylmethyl]-1,3-thiazol-4-ine hydrochloride] | 96
Cc1ccc(NC(=O)Cc2csc(=Nc3ccc(F)cc3F)n2C)cc1 [Compound 332, 2-(2,4-difluorophenylimino)-3-methyl-4-[N-(4-methylphenyl)carbamoylmethyl]-1,3-thiazol-4-ine] | 100
Br.Cn1c(CC(=O)Nc2ccc(Cl)cc2)csc1=Nc1ccc(Br)cc1 [Compound 317, 2-(4-bromophenylimino)-3-methyl-4-[N-(4-chlorophenyl)carbamoylmethyl]-1,3-thiazol-4-ine hydrobromide] | 100

Compound | Inhibiting Ratio (%) (at 250 ppm)
Br.Cn1c(CC(=O)Nc2cccc(C(F)(F)F)c2)csc1=Nc1cccc(C(F)(F)F)c1 [Compound 7, 2-(3-trifluoromethylphenylimino)-3-methyl-4-[N-(3-trifluoromethylphenyl)carbamoylmethyl]-1,3-thiazol-4-ine hydrobromide] | 97
Br.Cn1c(CC(=O)Nc2cccc(Cl)c2)csc1=Nc1ccc(C(F)(F)F)cc1 [Compound 20, 2-(4-trifluoromethylphenylimino)-3-methyl-4-[N-(3-chlorophenyl)carbamoylmethyl]-1,3-thiazol-4-ine hydrobromide] | 91
Cl.Cn1c(CC(=O)Nc2ccc(C#N)cc2)csc1=Nc1ccc(OC(F)(F)F)cc1 [Compound 215, 2-(4-trifluoromethoxyphenylimino)-3-methyl-4-[N-(4-cyanophenyl)carbamoylmethyl]-4-thiazoline hydrochloride] | 93
COc1ccc(NC(=O)Cc2csc(=Nc3cc(OC(C)C)c(Cl)cc3F)n2C)cc1.Cl [Compound 208, 2-(4-chloro-5-isopropoxy-2-fluorophenylimino)-3-methyl-4-[N-(4-methoxyphenyl)carbamoylmethyl]-1,3-thiazol-4-ine hydrochloride] | 97
Br.Cc1ccc(NC(=O)Cc2csc(=Nc3ccc([N+](=O)[O-])cc3F)n2C)cc1 [Compound 55, 2-(2-fluoro-4-nitrophenylimino)-3-methyl-4-[N-(4-methylphenyl)carbamoylmethyl]-1,3-thiazol-4-ine hydrobromide] | 96
Cl.Cn1c(CC(=O)Nc2ccc(OC(F)(F)F)cc2)csc1=Nc1ccc(F)cc1F [Compound 192, 2-(2,4-difluorophenylimino)-3-methyl-4-[N-(4-trifluoromethoxyphenyl)carbamoylmethyl]-1,3-thiazol-4-ine hydrochloride] | 92
Br.COc1ccc(NC(=O)Cc2csc(=Nc3ccccc3OC)n2C)cc1 [Compound 311, 2-(2-methoxyphenylimino)-3-methyl-4-[N-(4-methoxyphenyl)carbamoylmethyl]-1,3-thiazol-4-ine hydrobromide] | 95
Br.Cn1c(CC(=O)Nc2cccc(Cl)c2)csc1=Nc1cc(Cl)cc(Cl)c1 [Compound 21, 2-(3,5-dichlorophenylimino)-3-methyl-4-[N-(3-chlorophenyl)carbamoylmethyl]-1,3-thiazol-4-ine hydrobromide] | 88
Br.Cc1cc(Br)ccc1N=c1scc(CC(=O)Nc2ccccc2)n1C [Compound 26, 2-(4-bromo-2-methylphenylimino)-3-methyl-4-(N-phenylcarbamoylmethyl)-1,3-thiazol-4-ine hydrobromide] | 100
Cl.Cn1c(CC(=O)Nc2ccc(Br)cc2)csc1=Nc1ccc(F)cc1F [Compound 133, 2-(2,4-difluorophenylimino)-3-methyl-4-[N-(4-bromophenyl)carbamoylmethyl]-1,3-thiazol-4-ine hydrochloride] | 99
Cl.Cn1c(CC(=O)Nc2ccccc2F)csc1=Nc1cccc(Br)c1 [Compound 153, 2-(3-bromophenylimino)-3-methyl-4-[N-(2-fluorophenyl)carbamoylmethyl]-1,3-thiazol-4-ine hydrochloride] | 99
Br.Cn1c(CC(=O)Nc2cccc(Cl)c2)csc1=Nc1ccc(OC(F)(F)F)cc1 [Compound 58, 2-(4-trifluoromethoxyphenylimino)-3-methyl-4-[N-(3-chlorophenyl)carbamoylmethyl]-1,3-thiazol-4-ine hydrobromide] | 96
Br.COc1ccc(NC(=O)Cc2csc(=Nc3ccc(Br)cc3)n2C)cc1 [Compound 318, 2-(4-bromophenylimino)-3-methyl-4-[N-(4-methoxyphenyl)carbamoylmethyl]-1,3-thiazol-4-ine hydrobromide] | 100
Cc1ccc(NC(=O)Cc2csc(=Nc3cc(OC(C)C)c(Cl)cc3F)n2C)cc1.Cl [Compound 168, 2-(4-chloro-5-isopropoxy-2-fluorophenylimino)-3-methyl-4-[N-(4-methylphenyl)carbamoylmethyl-]-1,3-thiazol-4-ine hydrochloride] | 92
Br.COc1ccccc1N=c1scc(CC(=O)Nc2cccc(C(F)(F)F)c2)n1C [Compound 65, 2-(2-methoxyphenylimino)-3-methyl-4-[N-(3-trifluoromethylphenyl)carbamoylmethyl]-1,3-thiazol-4-ine hydrobromide] | 98
Cl.Cn1c(CC(=O)Nc2ccccc2F)csc1=Nc1ccc(F)c(Cl)c1 [Compound 149, 2-(3-chloro-4-fluorophenylimino)-3-methyl-4-[N-(2-fluorophenyl)carbamoylmethyl]-1,3-thiazol-4-ine hydrochloride] | 95
Br.Cc1ccc(NC(=O)Cc2csc(=Nc3cccc(F)c3)n2C)cc1 [Compound 48, 2-(3-fluorophenylimino)-3-methyl-4-[N-(4-methylphenyl)carbamoylmethyl]-1,3-thiazol-4-ine hydrobromide] | 100
